The values that follow come from PubChem BioAssay AID1023 (Columbia University Molecular Screening Center, 2008).

Structures are written as SMILES. pIC50: −log10 of the molar value.

Usually pIC50 stands for −log10 of the IC50, conventionally taken in molar units.

The test relates to HUVEC TNFalpha-induced p65 nuclear translocation, imaging. The test can be described thus: inhibitors of TNFa-induced NFkB p65 translocation, SAR follow-up, imaging, HUVEC (AID 1023).

For the compound `Cc1ccc2cccc(NS(=O)(=O)c3cccc([N+](=O)[O-])c3)c2n1`, the negative-log IC50 (pIC50) was 6.04.
To `COc1ccc2c(c1)-c1ccc3cccnc3c1NS2(=O)=O` belongs 6.00; to `COc1cc2ccc(C)nc2c2c1-c1cc(C)ccc1S(=O)(=O)N2`, 6.05; to `COc1ccc(S(=O)(=O)Nc2cccc3ccc(C)nc23)c([N+](=O)[O-])c1`, 5.99.
To `Cc1ccc2c(c1)-c1ccc3cccnc3c1NS2(=O)=O` belongs 6.25; to `Cc1ccc2cccc(NS(=O)(=O)c3ccc(Cl)s3)c2n1`, 6.01.
